Where two headings read alike, the source gives them in different places.
Legend:
Avi-tagged FL MALT-1 = Avi-tagged FL MALT-1 (Homo sapiens (Human), UniProt Q9UDY8); assay: MALT-1 Fluorogenic Peptide Cleavage Assay (MALT1 inhibition assay); assay type: biochemical; conditions: Ac-LRSR-AMC peptide substrate, 30 min pre-incubation, 90 min reaction at room temperature
How it was run: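 Full-length Avi-tagged human MALT-1 (40 nM working stock) pre-incubated 30 min at RT with compound in 25 mM HEPES pH 6.89, 660 mM sodium citrate, 1 mM TCEP, […], 0.05% CHAPS, 2% DMSO. Ac-LRSR-AMC added at Km (50 μM working stock) or 10×Km (280 μM working stock); 90 min at RT, AMC fluorescence (ex 342/em 441 nm), IC50 from % inhibition curves.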

[1] = test system: NF-kB reporter in Jurkat cells; assay: NF-kB reporter assay in Jurkat cells stimulated with aCD3/aCD28/PMA; assay type: cell-based; conditions: Homo sapiens, read-out: NF-kB Reporter Assay IC50
How it was run: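 Jurkat cells (25,000/well, serum-free RPMI) were pre-incubated 1 h at 37° C with serially diluted compound, then stimulated 4 h with aCD3/aCD28/PMA at final […]. NF-kB reporter activity was read by One-Glo luminescence; IC50 values reported.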

[2] = Jurkat cells, 1 hr compound pre-incubation, aCD3/aCD28/PMA stimulation 4 hr, One-Glo readout

Chain of Avi-tagged FL MALT-1 (Q9UDY8 whole entry): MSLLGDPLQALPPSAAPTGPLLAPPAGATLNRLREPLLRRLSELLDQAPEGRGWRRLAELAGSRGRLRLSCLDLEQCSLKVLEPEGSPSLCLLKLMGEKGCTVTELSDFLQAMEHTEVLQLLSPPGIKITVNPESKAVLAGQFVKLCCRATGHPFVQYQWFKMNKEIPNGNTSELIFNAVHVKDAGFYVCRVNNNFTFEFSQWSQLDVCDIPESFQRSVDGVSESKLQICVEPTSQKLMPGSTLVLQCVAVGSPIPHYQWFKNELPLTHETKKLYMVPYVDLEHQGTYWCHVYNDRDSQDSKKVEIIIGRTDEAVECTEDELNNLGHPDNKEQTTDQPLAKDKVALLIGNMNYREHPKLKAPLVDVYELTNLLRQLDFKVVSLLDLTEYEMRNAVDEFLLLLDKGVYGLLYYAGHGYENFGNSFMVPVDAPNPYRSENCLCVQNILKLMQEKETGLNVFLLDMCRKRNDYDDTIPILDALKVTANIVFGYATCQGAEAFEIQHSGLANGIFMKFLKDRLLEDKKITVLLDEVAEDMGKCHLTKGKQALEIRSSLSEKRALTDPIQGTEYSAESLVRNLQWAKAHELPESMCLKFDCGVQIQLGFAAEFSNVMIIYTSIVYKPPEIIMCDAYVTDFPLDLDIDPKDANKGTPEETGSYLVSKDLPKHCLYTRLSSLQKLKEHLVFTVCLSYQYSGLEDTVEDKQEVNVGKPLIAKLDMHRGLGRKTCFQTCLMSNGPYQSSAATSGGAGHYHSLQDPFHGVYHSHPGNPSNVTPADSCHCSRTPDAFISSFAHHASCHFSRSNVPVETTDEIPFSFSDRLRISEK

Compound | IC50 (Avi-tagged FL MALT-1) [nM] | IC50 [1, 2] [nM] | IC50 ([1]; Jurkat) [nM]
Cn1ncc2cccc(NS(=O)(=O)c3cnn(-c4cc(C(F)(F)F)c(F)cn4)c3)c21 [Compound I-122, 1-(5-fluoro-4-(trifluoromethyl)pyridin-2-yl)-N-(1-methyl-1H-indazol-7-yl)-1H-pyrazole-4-sulfonamide] | 400 to 1000 | < 400 | –
Cn1ncc2cccc(NS(=O)(=O)c3cnn(-c4cc(C5CCOCC5)ccn4)c3)c21 [Compound I-123, N-(1-methyl-1H-indazol-7-yl)-1-(4-(tetrahydro-2H-pyran-4-yl)pyridin-2-yl)-1H-pyrazole-4-sulfonamide] | > 2500 | < 400 | –
COc1ncc2cnn(C)c2c1NS(=O)(=O)c1cnn(-c2cc(C3(F)COC3)ccn2)c1 [Compound I-124, 1-(4-(3-fluorooxetan-3-yl)pyridin-2-yl)-N-(6-methoxy-1-methyl-1H-pyrazolo[4,3-c]pyridin-7-yl)-1H-pyrazole-4-sulfonamide] | ≤ 400 | < 400 | –
COc1ncc2cnn(C)c2c1NS(=O)(=O)c1cnn(-c2cc(C3(OC)COC3)ccn2)c1 [Compound I-125, N-{6-methoxy-1-methylpyrazolo [4,3-c]pyridin-7-yl}-1-[4-(3-methoxyoxetan-3-yl)pyridin-2-yl]pyrazole-4-sulfonamide] | ≤ 400 | < 400 | –
COc1ncc2cnn(C)c2c1NS(=O)(=O)c1cnn(-c2cc(C(F)F)ccn2)c1 [Compound I-126, 1-[4-(difluoromethyl)pyridin-2-yl]-N-{6-methoxy-1-methylpyrazolo[4,3-c]pyridin-7-yl}pyrazole-4-sulfonamide] | ≤ 400 | < 400 | –
COc1ncc2cnn(C)c2c1NS(=O)(=O)c1cnn(-c2cc(C(C)(C)C)ccn2)c1 [Compound I-127, 1-(4-(tert-butyl)pyridin-2-yl)-N-(6-methoxy-1-methyl-1H-pyrazolo[4,3-c]pyridin-7-yl)-1H-pyrazole-4-sulfonamide] | ≤ 400 | < 400 | –
Cn1ncc2cccc(NS(=O)(=O)c3cnn(-c4cc(C5(O)CCOC5)ccn4)c3)c21 (stereo not shown) [Compound I-128, 1-(4-(3-hydroxytetrahydrofuran-3-yl)pyridin-2-yl)-N-(1-methyl-1H-indazol-7-yl)-1H-pyrazole-4-sulfonamide] | > 2500 | < 400 | –
Cn1ncc2cccc(NS(=O)(=O)c3cnn(-c4cc(C5(O)CCOCC5)ccn4)c3)c21 [Compound I-129, 1-(4-(4-hydroxytetrahydro-2H-pyran-4-yl)pyridin-2-yl)-N-(1-methyl-1H-indazol-7-yl)-1H-pyrazole-4-sulfonamide] | > 2500 | 400 to 1000 | –
Cn1ncc2cccc(NS(=O)(=O)c3cnn(-c4cc(C5(F)CCOCC5)ccn4)c3)c21 [Compound I-130, 1-(4-(4-fluorotetrahydro-2H-pyran-4-yl)pyridin-2-yl)-N-(1-methyl-1H-indazol-7-yl)-1H-pyrazole-4-sulfonamide] | > 2500 | < 400 | –
COC1(c2ccnc(-n3cc(S(=O)(=O)Nc4cccc5cnn(C)c45)cn3)c2)CCOCC1 [Compound I-131, 1-(4-(4-methoxytetrahydro-2H-pyran-4-yl)pyridin-2-yl)-N-(1-methyl-1H-indazol-7-yl)-1H-pyrazole-4-sulfonamide] | > 2500 | < 400 | –
COc1ccc2cnn(C)c2c1NS(=O)(=O)c1cnn(-c2cc(C3(OC)CCC3)ccn2)c1 [Compound I-132, N-(6-Methoxy-1-Methyl-1H-Indazol-7-yl)-1-(4-(1-Methoxycyclobutyl)Pyridin-2-yl)-1H-Pyrazole-4-Sulfonamide] | ≤ 400 | – | < 400
COc1ccc2cnn(C)c2c1NS(=O)(=O)c1cnn(-c2cc(C(F)F)ccn2)c1 [Compound I-133, 1-(4-(Difluoromethyl)Pyridin-2-yl)-N-(6-Methoxy-1-Methyl-1H-Indazol-7-yl)-1H-Pyrazole-4-Sulfonamide] | ≤ 400 | < 400 | –
COc1ccc2cnn(C)c2c1NS(=O)(=O)c1cnn(-c2cc(C(C)O)ccn2)c1 (stereo not shown) [Compound I-134, 1-(4-(1-hydroxyethyl)pyridin-2-yl)-N-(6-methoxy-1-methyl-1H-indazol-7-yl)-1H-pyrazole-4-sulfonamide] | 400 to 1000 | < 400 | –
COc1ccc2cnn(C)c2c1NS(=O)(=O)c1cnn(-c2cc(C(C)(C)O)ccn2)c1 [Compound I-135, 1-(4-(2-hydroxypropan-2-yl)pyridin-2-yl)-N-(6-methoxy-1-methyl-1H-indazol-7-yl)-1H-pyrazole-4-sulfonamide] | 400 to 1000 | < 400 | –
Cn1ncc2ccc(F)c(NS(=O)(=O)c3cnn(-c4cc(C(F)(F)F)ccn4)c3)c21 [Compound I-136, N-(6-fluoro-1-methyl-1H-indazol-7-yl)-1-(4-(trifluoromethyl)pyridin-2-yl)-1H-pyrazole-4-sulfonamide] | 400 to 1000 | 400 to 1000 | –
Cc1c(S(=O)(=O)Nc2cccc3cnn(C)c23)cnn1-c1cc(C(F)(F)F)ccn1 [Compound I-137, 5-methyl-N-(1-methyl-1H-indazol-7-yl)-1-(4-(trifluoromethyl)pyridin-2-yl)-1H-pyrazole-4-sulfonamide] | 400 to 1000 | < 400 | –
COC1(c2ccnc(-n3cc(S(=O)(=O)Nc4cccc5cnn(C)c45)cn3)c2)CC(F)(F)C1 [Compound I-138, 1-(4-(3,3-difluoro-1-methoxycyclobutyl)pyridin-2-yl)-N-(1-methyl-1H-indazol-7-yl)-1H-pyrazole-4-sulfonamide] | > 2500 | < 400 | –
Cn1nc(F)c2cccc(NS(=O)(=O)c3cnn(-c4cc(C(C)(F)F)ccn4)c3)c21 [Compound I-139, 1-(4-(1,1-Difluoroethyl)Pyridin-2-yl)-N-(3-FLUORO-1-Methyl-1H-Indazol-7-yl)-1H-Pyrazole-4-Sulfonamide] | > 2500 | < 400 | –
CCC(F)(F)c1ccnc(-n2cc(S(=O)(=O)Nc3cccc4cnn(C)c34)cn2)c1 [Compound I-140, 1-(4-(1,1-difluoropropyl)pyridin-2-yl)-N-(1-methyl-1H-indazol-7-yl)-1H-pyrazole-4-sulfonamide] | > 2500 | – | < 400
COc1ncc2cnn(C)c2c1NS(=O)(=O)c1cnn(-c2cc(C(C)(F)F)ccn2)c1 [Compound I-141, 1-(4-(1,1-Difluoroethyl)Pyridin-2-yl)-N-(6-Methoxy-1-Methyl-1H-Pyrazolo[4,3-C]Pyridin-7-yl)-1H-Pyrazole-4-Sulfonamide] | ≤ 400 | < 400 | –
COc1ccc2cnn(C)c2c1NS(=O)(=O)c1cnn(-c2cc(C3(OC)CC(C)C3)ccn2)c1 (stereo not shown) [Compound I-142, N-(6-methoxy-1-methyl-1H-indazol-7-yl)-1-(4-(1-methoxy-3-methylcyclobutyl)pyridin-2-yl)-1H-pyrazole-4-sulfonamide] | 400 to 1000 | < 400 | –
COc1ccc2cnn(C)c2c1NS(=O)(=O)c1cnn(-c2cc(C3(O)CC(C)C3)ccn2)c1 (stereo not shown) [Compound I-143, 1-(4-(1-hydroxy-3-methylcyclobutyl)pyridin-2-yl)-N-(6-methoxy-1-methyl-1H-indazol-7-yl)-1H-pyrazole-4-sulfonamide] | 1000 to 2500 | < 400 | –
COc1ccc2cnn(C)c2c1NS(=O)(=O)c1cnn(-c2cc(C3(F)CCC3)ccn2)c1 [Compound I-144, 1-(4-(1-fluorocyclobutyl)pyridin-2-yl)-N-(6-methoxy-1-methyl-1H-indazol-7-yl)-1H-pyrazole-4-sulfonamide] | ≤ 400 | – | < 400

From US20240150321A1, “PYRAZOLYLSULFONAMIDE COMPOUNDS AND THEIR USE IN THERAPY” (HOTSPOT THERAPEUTICS, INC., priority 2022, published 2024)
